Assay results taken from article PMC6331810, “Novel Coumarin-Containing Aminophosphonatesas Antitumor Agent: Synthesis, Cytotoxicity, DNA-Binding and Apoptosis Evaluation” (Molecules, 2015).

How the values were obtained:
[1] = system: CT-DNA; assay: Circular dichroism spectra of CT-DNA; format: binding, calf; settings: [compound]/[DNA] 1:10; 1.5 × 10^−4 M DNA, 1.5 × 10^−5 M compound
Experimental: CD absorption spectra of DNA were measured in TBS at a 100 nm/min scan rate in the wavelength range from 200 to 500 nm, with 1.5 × 10^−4 M DNA in the absence and presence of each compound of 1.5 × 10^−5 M, respectively. The CD signal of TBS was taken as the background and subtracted from the spectra. All the spectroscopic experiments were performed at 25 °C.

[2] = system: CT-DNA; assay: Spectrofluorimetric titration with CT-DNA (Stern-Volmer and binding constants); set-up: species or system calf; settings: from F0/F-1 vs [DNA]; Tris-HCl buffer pH 7.2
Experimental: The DNA binding properties of compounds 8a–8j were evaluated based on their affinity or interaction with CT-DNA, measured with fluorescence spectrometric titration.
The calibration curve for determination of DNA was constructed by adding different proportion of DNA to a 2.0 × 10^−3 M compound 8j solution (pH = 7.2 Tris-HCl buffer). […] [Q] is the concentration of quencher. KSV is the Stern-Volmer constant and KQ is the bimolecular quenching rate constant. τ0 is the lifetime of the fluorophore in the absence of quencher and for most biomolecules τ0 is about 10^−8 s. The Stern-Volmer constant, KSV, for compound 8j has been determined from the plot of F0/F-1 vs. [DNA] (see Figure 2) and found to be 5.11 × 10^2 M^−1.
When small molecules binding independently to a set of equivalent sites on a macromolecule, the equilibrium between free and bound molecules is given by the equation [28]: (2) lg (F0/F-1) = lgKb + nlg[Q] where Kb and n are the binding constant and the number of binding sites, respectively, which could be got from the curve of lg(F0/F-1) vs. lg[Q]. The plot of lg(F0/F-1) vs. lg[DNA] has been shown in Figure 3 for compound 8j and indicates a simple binding process for the compound.
All fluorescence experiments were carried out on a Perkin-Elmer LS50B luminescence spectrometer. Fluorescence spectra were measured at rt using quartz cells of 1cm path. To the solutions of the drugs (2.0 × 10^−3 M) in 2.5 mL Tris-HCl buffer (pH = 7.2) were added aliquots of CT-DNA (2.0 × 10^−3 M) solution containing drugs (2.0 × 10^−3 M) in 2.5 mL Tris-HCl buffer (pH = 7.2). This operation ensured that the concentration of CT-DNA increased gradually from 0 to 360 µM, while the concentrations of drugs were kept constant. The mixing was achieved by stirring for 10min. Then, the corresponding fluorescence spectra were measured (ex 325 nm, ex/em 1.5 nm/1.5 nm). Binding constants were derived from the modified.

[3] = system: HCT-116 cells; assay: Apoptosis and cell cycle analysis by flow cytometry (PI staining); format: cell-based, human; settings: HCT-116, 48 h at IC50 concentration
Experimental: Compared to the control (untreated cells), changes in the cell cycle distribution of treated HCT-116 cells were evident.
Figure 6 Inhibition of cell cycle progress in HCT-116 cells treated with compounds 8d, 8f, 8c and 8j for 48 h. Cells were fixed with ethanol and stained with PI. Cell cycle distribution was analyzed by flow cytometry. First peak represents sub-G1 peak, which was taken as the fraction of the apoptotic cell population. TEXT PRINTED IN THE PICTURE: 8d: Diploid: 100.00%; Dip G1: 87.24 % at 74.84; Dip G2: 7.42 % at 147.44; Dip S: 5.34 % | 8f: Diploid: 100.00%; Dip G1: 74.25 % at 73.13; Dip G2: 10.86 % at 144.07; Dip S: 14.89 % | 8c: Diploid: 100.00%; Dip G1: 82.72 % at 72.85; Dip G2: 6.28 % at 143.51; Dip S: 11.00% | 8j: Diploid: 100.00%; Dip G1: 15.12 % at 45.10; Dip G2: 52.47 % at 88.84; Dip S: 32.40%; Apoptosis: 4.01 % Mean: 33.84 | Control (−): Diploid: 100.00%; Dip G1: 35.32 % at 52.60; Dip G2: 19.20 % at 103.62; Dip S: 45.84% DOUBTS OF THE COPYIST ABOUT THIS PICTURE: Print is small throughout, so 3, 5, 6, 8 and 9 cannot be told apart with certainty in the values below; best readings are given. / 8d, Dip G1: 87.24 % at 74.84, the 8s uncertain / 8d, Dip S: 5.34, the 5 and 3 uncertain / 8f, Dip G2: 10.86 % at 144.07, the 8 and 6 uncertain / 8f, Dip S: 14.89, the 8 and 9 uncertain / 8c, Dip G1: 82.72 % at 72.85, the 8s and 5 uncertain / 8c, Dip G2: 6.28 % at 143.51, the 6, 8, 3 and 5 uncertain / 8j, Dip G2: 52.47 % at 88.84, the 5 and 8s uncertain / 8j, Apoptosis: 4.01 % Mean: 33.84, the 3s and 8 uncertain / Control (−), Dip G1: 35.32 % at 52.60, the 3s, 5s and 6 uncertain / Control (−), Dip G2: 19.20 % at 103.62, the 9, 3 and 6 uncertain / Control (−), Dip S: 45.84, the 5 and 8 uncertain / Control (−) is an untreated control, not a compound; it is included because results are printed with it. / G2/G1: 1.97 and %CV, printed in every plot, are left out as fit parameter and statistic.
Apoptosis was quantified by assessing the fraction of cells with sub-G1 DNA content by flow cytometry. The cells lines were treated with indicated concentrations of compounds […]. After incubated for 48 h, cells were washed twice with ice-cold PBS, fixed and permeabilized with ice-cold 70% ethanol at −20 °C overnight. The cells were treated with 100 μg/mL RNase A at 37 °C for 30 min after washed with ice-cold PBS, and finally stained with 1 mg/mL propidium iodide (PI) in the dark at 4 °C for 30 min. Analysis was performed with the system software (Cell Quest; BD Biosciences, Franklin Lakes, NJ, USA).

SMILES	Negative AI decrease (CD absorption peak of CT-DNA at 247 nm) [1] [%]	Positive AI decrease (CD absorption peak of CT-DNA at 281 nm) [1] [%]	KSV (Stern-Volmer constant) [2] [M⁻¹]	Cell cycle effect in words [3]	G1-phase population ([3]; untreated cells 35.32%) [%]
CCOP(=O)(OCC)C(C)(NC(=O)CCOc1ccc2c(C)cc(=O)oc2c1)c1ccccc1 (centres unmarked) [Compound 8j, Diethyl 1-(3-(4-methyl-2-oxo-2H-chromen-7-yloxy)propanamido)-1-phenylethylphosphonate]	30.4	26.82	511	accumulation of cells in the G2 phase accompanying reduction in the G1 phase	–
CCOP(=O)(OCC)C(NC(=O)CCOc1ccc2c(C)cc(=O)oc2c1)c1cccc(Br)c1 (centres unmarked) [Compound 8f, Diethyl(3-(4-methyl-2-oxo-2H-chromen-7-yloxy)propanamido)(3-bromophenyl)methylphospho-nate]	26.9	23.1	412	–	74.25
